# Measured values reported in patent US20100190225A1, “D-PSICOSE PRODUCTION METHOD BY D-PSICOSE EPIMERASE” (CJ CHEILJEDANG CORP., priority 2005, published 2010).
# Where two headings read alike, the source gives them in different places.
# How the values were obtained:
# psicose 3-epimerase [1] = target: T1, psicose 3-epimerase (Agrobacterium fabrum, UniProt A9CH28); type: biochemical; details: for Relative activity (%): 1 mM metal ion added or EDTA treatment, 1.0% D-fructose, pH 7.5, 50° C., 20 minutes, None = 100; for effect of metal ion on enzyme activity: 1 mM metal ion, in words
# T1 construct: made in house; host or cells: Escherichia coli BL21(DE3)
# T1 sequence (A9CH28 with tags, fused parts or gaps): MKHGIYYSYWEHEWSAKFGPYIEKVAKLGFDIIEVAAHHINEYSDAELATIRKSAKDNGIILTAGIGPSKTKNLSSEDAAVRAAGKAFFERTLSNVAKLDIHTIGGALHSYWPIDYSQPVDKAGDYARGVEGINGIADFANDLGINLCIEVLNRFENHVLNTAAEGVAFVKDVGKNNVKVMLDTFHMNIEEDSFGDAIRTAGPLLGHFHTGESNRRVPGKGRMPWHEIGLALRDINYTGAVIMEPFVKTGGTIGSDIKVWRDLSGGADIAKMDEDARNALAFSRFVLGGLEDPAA
# psicose 3-epimerase [2] = target: T1, psicose 3-epimerase; test: Substrate specificity of psicose 3-epimerase; type: biochemical; details: for Relative activity (%) No metal ion added / Relative activity (%) Mn^2+ added: 10 mM monosaccharide as substrate, pH 7.5, 50° C., 20 minutes
# Procedure: In the current Experimental Example, MALDI-TOF-MS was used for the measurement of the molecular weight of psicose 3-epimerase, and cinnamic acid was used as a matrix. The enzyme activity was measured by using D-fructose as a substrate. For the measurement of the enzyme activity, psicose 3-epimerase was allowed to react with D-fructose in a 50 mM PIPES buffer solution containing 1.0% of D-fructose, at pH 7.5 and at 50° C. for 20 minutes, and then the reaction solution was heated at 100° C. for 5 minutes to terminate the reaction. The PIPES buffer solution containing D-fructose was prepared by dissolving D-fructose in PIPES buffer solution at pH 7 to 8 to a concentration of 60 to 70% by weight, and the PIPES buffer solution containing D-fructose was continuously added to a bioreactor maintained at 40 to 60° C. For the purpose of easy comparison of the enzyme activity, one unit of psicose 3-epimerase is defined as the amount of the psicose 3-epimerase needed to produce […] of D-psicose per one minute at pH 7.5 and at 50° C.
# The concentrations of D-fructose, D-psicose, D-sorbose, D-tagatose, D-xylulose and D-ribulose were measured using a high pressure liquid chromatography system with a BP-100 calcium ion […] column and an RI detector. The column was conditioned to allow a flow of distilled water at a rate of 0.5 ml/min at 80° C.
# Reaction of the psicose 3-epimerase was performed in a 50 mM PIPES buffer solution containing 0.04 units/ml of the psicose 3-epimerase and 10 mM each individually of the monosaccharides indicated in Table 2 below, at pH 7.5 and at 50° C. for 20 minutes, and then each of the reaction solutions were heated at 100° C. for 5 minutes to terminate the reaction. Then, the enzyme activity of the psicose 3-epimerase of each reaction solution was measured.
# [3] = in words; cited from earlier work
# lipogenic enzymes = details: dietary, in words; cited from earlier work
# [4] = D-psicose production by free psicose 3-epimerase; type: biochemical; details: 700 g/L D-fructose; for D-Psicose: 14 units/ml, 1 mM Mn^2+, pH 7.0, 60° C.
# Procedure: In order to produce D-psicose at high concentrations, the reaction was performed in a 50 mM PIPES buffer solution containing 14 units of psicose 3-epimerase/ml, 1 mM of Mn^2+ ions, and 700 g/L of D-fructose, at pH 7.0 and at 60° C. for various reaction times. Then, the reaction was terminated by heating the reaction solution at 100° C. for 5 minutes, and the enzyme activity was measured.
# [5] = Equilibrium between D-psicose and D-fructose achieved by psicose 3-epimerase; type: biochemical
# Procedure: In Example 6, the reaction of the psicose 3-epimerase was performed in a 50 mM PIPES buffer solution containing 0.04 units of psicose 3-epimerase/ml, 1 mM of Mn^2+ ions, and 0.1% of D-psicose and D-fructose together, at pH 7.0 and at temperatures ranging from 30° C. to 60° C. for 24 hours to allow the reaction to proceed sufficiently, in order to determine the equilibrium between D-psicose and D-fructose. Then, the reactions were terminated by heating the reaction solution at 100° C. for 5 minutes, and the enzyme activity was measured.
# As a result, the reaction was started with 5 initial ratios of D-psicose to D-fructose, of 0:100, 25:75, 50:50, 75:25, and 100:0, and the final ratios of D-psicose to D-fructose were determined after 24 hours of the reaction, as shown in FIG. 2. Referring to FIG. 2, the ratio of D-psicose to D-fructose was 32:68 at 30° C., while the same ratio was 37:63 at 60° C.
# [6] = Activity of psicose 3-epimerase according to pH and temperature changes; type: biochemical
# Procedure: In Example 5, the psicose 3-epimerase was reacted with D-fructose at various pH values and temperatures, and the enzyme activities obtained at the various pH values and temperatures were compared. In order to investigate the pH effect, the reaction of the psicose 3-epimerase was performed in a 50 mM PIPES buffer solution containing 0.04 units of psicose 3-epimerase/ml and 1.0% of D-fructose at pH values ranging from 6.5 to 7.5, and the same reaction was performed in a 50 mM EPPS buffer solution containing 0.04 units of psicose 3-epimerase/ml and 1.0% of D-fructose at pH values ranging from 7.5 to 8.5. Here, the respective reactions were performed at 50° C. when metal ions were not added, and at 60° C. when Mn ions were added, respectively for 20 minutes. Then, the reactions were terminated by heating the reaction solutions at 100° C. for 5 minutes, and the enzyme activities were measured. The results are illustrated in FIG. 1A.
# In order to investigate the temperature effect, the reaction was performed in a 50 mM PIPES buffer solution containing 0.04 units of psicose 3-epimerase/ml and 1.0% of D-fructose at temperatures ranging from 30° C. to 70° C. for 20 minutes, at pH 7.5 when metal ions were not added, and at pH 7.0 when Mn ions were added. The reactions were terminated by heating the reaction solution at 100° C. for 5 minutes, and the enzyme activities were measured. The results are illustrated in FIG. 1B.
Molecule,Relative activity (%) (psicose 3-epimerase [1]),Relative activity (%) No metal ion added (psicose 3-epimerase [2]) [%],Relative activity (%) Mn^2+ added (psicose 3-epimerase [2]) [%],also measured
[Al+3] [Al^3+],100,,,
[Ba+2] [Ba^2+],95.6,,,
[Ca+2] [Ca^2+],64.4,,,
[Co+2] [Co^2+],268,,,effect of metal ion on enzyme activity (psicose 3-epimerase [1]): enhanced the enzyme activity
[Cu+2] [Cu^2+],2.2,,,effect of metal ion on enzyme activity (psicose 3-epimerase [1]): suppressed the enzyme activity
O=C(CO)[C@@H](O)[C@H](O)[C@H](O)COP(=O)(O)O [D-Fructose-6-phosphate],,0.0,0.0,
O=C(CO)[C@@H](O)[C@H](O)[C@H](O)CO [D-Fructose],,37.9,139,
O=C(CO)[C@H](O)[C@H](O)[C@H](O)CO [D-Psicose],,100,274,"metabolism in the human body [3]: almost non-metabolizable; effect on activity of lipogenic enzymes (lipogenic enzymes): suppressing the activity of lipogenic enzymes; affinity of the psicose 3-epimerase for substrate (psicose 3-epimerase [2]; D-psicose compared with D-tagatose, in words): higher affinity"
O=C(CO)[C@H](O)[C@H](O)CO [D-Ribulose],,10.2,15.4,
O=C(CO)[C@@H](O)[C@H](O)CO [D-Xylulose],,5.8,12.4,
"psicose 3-epimerase: enzyme (SEQ ID NO:1) from Agrobacterium tumefaciens ATCC33970 that converts D-fructose to D-psicose; monomer, metalloenzyme (protein, listed as Agrobacterium tumefaciens) MKHGIYYSYWEHEWSAKFGPYIEKVAKLGFDIIEVAAHHINEYSDAELATIRKSAKDNGIILTAGIGPSKTKNLSSEDAAVRAAGKAFFERTLSNVAKLDIHTIGGALHSYWPIDYSQPVDKAGDYARGVEGINGIADFANDLGINLCIEVLNRFENHVLNTAAEGVAFVKDVGKNNVKVMLDTFHMNIEEDSFGDAIRTAGPLLGHFHTGESNRRVPGKGRMPWHEIGLALRDINYTGAVIMEPFVKTGGTIGSDIKVWRDLSGGADIAKMDEDARNALAFSRFVLGGLEDPAA",,,,D-Psicose ([4]; reaction time 0 min): 0 g/L; D-Psicose ([4]; reaction time 10 min): 93 g/L; D-Psicose ([4]; reaction time 30 min): 155 g/L; D-Psicose ([4]; reaction time 60 min): 180 g/L; D-Psicose ([4]; reaction time 120 min): 211 g/L; D-psicose conversion yield ([4]; reaction time 120 minutes): 30.2%; D-Psicose ([4]; reaction time 180 min): 210 g/L; D-Psicose ([4]; reaction time 240 min): 210 g/L; D-Psicose ([4]; reaction time 300 min): 209 g/L; superiority to the yield achievable by conventional methods of producing D-psicose [5]: approximately 20%; optimal pH ([6]; Mn^2+ ions added): 7.0; optimal temperature ([6]; Mn^2+ ions added): 60 °C; optimal pH ([6]; metal ions not added): 7.5; optimal temperature ([6]; metal ions not added): 50 °C

# The next lines start with results.
Relative activity (%) (psicose 3-epimerase [1]),Relative activity (%) No metal ion added (psicose 3-epimerase [2]) [%],Relative activity (%) Mn^2+ added (psicose 3-epimerase [2]) [%],Molecule,also measured
,0.0,0.0,O=C(CO)[C@H](O)[C@H](O)COP(=O)(O)O [D-Ribulose-5-phosphate],
,0.8,1.7,O=C(CO)[C@H](O)[C@@H](O)[C@H](O)CO [D-Sorbose],
,65.5,92.3,O=C(CO)[C@@H](O)[C@@H](O)[C@H](O)CO [D-Tagatose],
20.0,,,O=C(O)CN(CCN(CC(=O)O)CC(=O)O)CC(=O)O [EDTA],
121,,,[Fe+3] [Fe^3+],Relative activity (%) (psicose 3-epimerase [1]; listed as Fe^2+): 139%
100,,,[Mg+2] [Mg^2+],
274,,,[Mn+2] [Mn^2+],effect of metal ion on enzyme activity (psicose 3-epimerase [1]): enhanced the enzyme activity
93.3,,,[Mo+2] [Mo^2+],
4.4,,,[Zn+2] [Zn^2+],effect of metal ion on enzyme activity (psicose 3-epimerase [1]): suppressed the enzyme activity
